From patent US12492356B2, “Oxa-sandalwood-type fragrance compounds” (SYMRISE AG, priority 2020, dated 2025) come the findings set out here.

Each structure is given as a SMILES string.

This assay relates to panel of at least four experts. As to the kind of experiment: Odor detection threshold (ODT), olfactometer TO8, DIN standard EN 13725. The settings on record: for ODT / ODT in air: olfactometer TO8, panel of at least four experts, DIN EN 13725. The text has this:
The odor detection threshold (in the following abbreviated as “ODT”) is defined as the lowest concentration of a certain odorous compound (gaseous, sensorially active substance) which is perceivable and thus which can be distinguished with certainty from a blank reference under standard conditions. Generally, lower ODT values are preferred as a lower amount of the fragrance compound is required in order to a achieve strong odor impressions and thus lower amounts can be used for perfuming. However, as the threshold depends on various factors such as concentration, solubility, partition coefficient between air and the olfactory active substance, vapor pressure, polarity, molecular mass etc., predictions referring to the ODT of a substance are difficult to make. Table 2 indicates the ODT values of preferred embodiment in comparison to commercially available Brahmanol® (Symrise AG) and Sandranol® (Symrise AG). The ODT was measured using an olfactometer TO8 and a panel of at least four experts according to DIN standard EN 13725. According to the DIN standard EN 13725, the odor threshold value is defined as the concentration of an odorous substance at which, under defined test conditions, the probability of perceiving the sample is 0.5, i.e. 50% of the test persons indicate an odor perception. Thereby, the quantitative ODT value is given as the ratio of volume fractions of an odor-free comparison matrix, such as air, to the examined matrix at which the odor could just be perceived, i.e. a dilution factor.

Take `CC1=CCC(CCC(C)CO)C1(C)C` (centres unmarked) [Brahmanol ®, 2-methyl-4-(2′,2′,3′-trimethyl-3′-cyclopenten-1′-yl)-butan-1-ol, reference compound]: the ODT is listed as 0.0173 ppm (v/v) and the ODT in air is 6.9 ng/L.
For `COCC1=CCC(C/C=C(\C)CO)C1(C)C` (centres unmarked) [Compound 1, 4-[3-(Methoxymethyl)-2,2-dimethyl-cyclopent-3-en-1-yl]-2-methyl-but-2-en-1-ol] the same measures were 0.0089 ppm (v/v) and 7.1 ng/L.
Take `COCC1=CCC(CCC(C)CO)C1(C)C` (centres unmarked) [Compound 2, 4-[3-(Methoxymethyl)-2,2-dimethyl-cyclopent-3-en-1-yl]-2-methyl-butan-1-ol]: the ODT was 0.00285 ppm (v/v) and the ODT in air worked out at 7.6 ng/L. The “ODT value lower by a factor” value (comparator not named in the sentence (commercial analogue)) is listed as 3.
With `CC/C(=C\CC1CC=C(COC)C1(C)C)CO` (centres unmarked) [Compound 3, 2-Ethyl-4-[3-(methoxymethyl)-2,2-dimethyl-cyclopent-3-en-1-yl]but-2-en-1-ol], the ODT was 0.0019 ppm (v/v) and the ODT in air amounted to 7.7 ng/L. Moreover, the “threshold value reduced by the factor (in comparison to Brahmanol)” value (compared with Brahmanol) is “about 10”.
In the case of `C=C(CC(C)CO)C1CC=C(COC)C1(C)C` (centres unmarked) [Compound 4, 4-[3-(Methoxymethyl)-2,2-dimethyl-cyclopent-3-en-1-yl]-2-methyl-pent-4-en-1-ol], the ODT is 0.0025 ppm (v/v) and the ODT in air amounted to 7.6 ng/L.
For `CC/C(=C\CC1CC=C(C)C1(C)C)CO` (centres unmarked) [Sandranol ®, 2-ethyl-4-(2′,2′,3′-trimethyl-3′-cyclopenten-1′-yl)-2-buten-1-ol, reference compound] the same measures were 0.000205 ppm (v/v) and 7.6 ng/L.
